Reference: patent publication US7964531B2, “3-phenoxy-4-pyridazinol derivatives and herbicidal composition containing the same” (Mitsui Chemicals Agro, Inc., priority 2001, dated 2011)

## COc1ccc(C)cc1Oc1nnc(Cl)cc1O [Compound No. 704, 6-Chloro-3-(2-methoxy-5-methylphenoxy)-4-pyridazinol]
  melting point: 126 to 134 °C

## CC(C)c1ccc(C2CC2)c(Oc2nnc(Cl)cc2O)c1 [Compound No. 664, 6-Chloro-3-(2-cyclopropyl-5-isopropylphenoxy)-4-pyridazinol]
  melting point: 211 to 212 °C

## COc1ccccc1C(=O)Oc1cc(Cl)nnc1Oc1ccccc1C [Compound No. 1509, 6-Chloro-3-(2-methylphenoxy)-4-pyridazinyl 2-methoxybenzoate]
  melting point: 114 to 116 °C

## Cc1cccc(C(C)(C)C)c1Oc1nnc(Cl)cc1O [Compound No. 805, 3-(2-tert-Butyl-6-methylphenoxy)-6-chloro-4-pyridazinol]
  melting point: 135 to 136 °C

## C[Si](C)(C)c1ccc(Oc2nnc(Cl)cc2O)cc1
  melting point: 197 to 199 °C

## Cn1ccc2c(Oc3nnc(Cl)cc3O)cccc21 [Compound No. 2565, 6-Chloro-3-[(1-methyl-1H-indol-4-yl)oxy]-4-pyridazinol]
  melting point: 203 to 206 °C

## CCOc1ccccc1Oc1nnc(Cl)cc1O [Compound No. 386, 6-Chloro-3-(2-ethoxyphenoxy)-4-pyridazinol]
  melting point: 155 to 175 °C

## Oc1cc(Cl)nnc1Oc1cc(F)ccc1C1CC1 [Compound No. 658, 6-Chloro-3-(2-cyclopropyl-5-fluorophenoxy)-4-pyridazinol]
  melting point: 227 to 228 °C

## Cc1cccc(C(C)C)c1Oc1nnc(Cl)cc1O [Compound No. 803, 6-Chloro-3-(2-isopropyl-6-methylphenoxy)-4-pyridazinol]
  melting point: 215 to 220 °C

## Oc1cc(Cl)nnc1Oc1cc(Cl)ccc1C1CC1 [Compound No. 659, 6-Chloro-3-(5-chloro-2-cyclopropylphenoxy)-4-pyridazinol]
  melting point: 194 to 195 °C

## Cc1ccccc1C(=O)Oc1cc(Cl)nnc1Oc1cccc(C(C)(C)C)c1 [Compound No. 1457, 3-(3-tert-Butylphenoxy)-6-chloro-4-pyridazinyl 2-methylbenzoate]
  melting point: 63 to 64 °C

## Cc1ccc(Oc2nnc(Cl)cc2O)c(C(C)(C)C)c1 [Compound No. 567, 3-(2-tert-Butyl-4-methylphenoxy)-6-chloro-4-pyridazinol]
  melting point: 230 to 236 °C

## Oc1cc(Cl)nnc1Oc1cccc2ccccc12 [Compound No. 527, 6-Chloro-3-(1-naphthyloxy)-4-pyridazinol]
  melting point: 243 to 245 °C

## Cc1cccc(C2CC2)c1Oc1nnc(Cl)cc1O
  melting point: 201 to 202 °C

## N#CC1(c2ccccc2Oc2nnc(Cl)cc2O)CC1 [Compound No. 173, 1-{2-[(6-Chloro-4-hydroxy-3-pyridazinyl)oxy]phenyl}cyclopropanecarbonitrile]
  melting point: 63 to 64 °C

## CCSc1cc(Oc2nnc(Cl)cc2O)c(Br)cc1Br [Compound No. 2596, 6-Chloro-3-[2,4-dibromo-5-(ethylsulfanyl)phenoxy]-4-pyridazinol]
  melting point: 225 to 228 °C

## Cc1ccccc1Oc1nnccc1O [Compound No. 5, 3-(2-Methylphenoxy)-4-pyridazinol]
  melting point: 169 to 171 °C

## Cc1cccc(C2CC2)c1Oc1nnc(Cl)cc1OC(=O)C(C)(C)C [Compound No. 1207, 6-Chloro-3-(2-cyclopropyl-6-methylphenoxy)-4-pyridazinyl pivalate]
  melting point: 84 to 87 °C

## Cc1cccc(Oc2nnc(Cl)cc2O)c1C [Compound No. 456, 6-Chloro-3-(2,3-dimethylphenoxy)-4-pyridazinol]
  melting point: 240 to 241 °C

## Cc1ccccc1Oc1nnc(Cl)cc1OC(=O)N(C)C
  melting point: 107 to 109 °C

## Cc1ccccc1Oc1nnc(-c2cccs2)cc1O [Compound No. 2478, 3-(2-Methylphenoxy)-6-(2-thienyl)-4-pyridazinol]
  melting point: 86 to 87 °C

## CC(C)c1cccc(Oc2nnc(Cl)cc2O)c1 [Compound No. 415, 6-Chloro-3-(3-isopropylphenoxy)-4-pyridazinol]
  melting point: 176 to 177 °C

## CC1(C)Cc2cccc(Oc3nnc(Cl)cc3O)c2C1 [Compound No. 513, 6-Chloro-3-[(2,2-dimethyl-2,3-dihydro-1H-inden-4-yl)oxy]-4-pyridazinol]
  melting point: 220 to 223 °C

## Oc1cccc(Oc2nnc(Cl)cc2O)c1 [Compound No. 2544, 6-Chloro-3-(3-hydroxyphenoxy)-4-pyridazinol]
  melting point: 248 to 251 °C

## Oc1cc(Cl)nnc1Oc1cccc(Cl)c1Cl [Compound No. 443, 6-Chloro-3-(2,3-dichlorophenoxy)-4-pyridazinol]
  melting point: 233 to 238 °C

## Oc1cc(Cl)nnc1Oc1ccccc1C1CC1(F)Cl (stereo not shown) [Compound No. 2519, 6-Chloro-3-[2-(2-chloro-2-fluorocyclopropyl)phenoxy]-4-pyridazinol]
  melting point: 175 to 177 °C

## CC(C)(C)c1ccccc1Oc1nnc(Cl)cc1O [Compound No. 136, 3-(2-tert-Butylphenoxy)-6-chloro-4-pyridazinol]
  melting point: 215 to 216 °C

## Cc1cccc(Oc2nnc(Cl)cc2O)c1 [Compound No. 413, 6-Chloro-3-(3-methylphenoxy)-4-pyridazinol]
  melting point: 205 to 208 °C

## CC(=O)c1ccc(Oc2nnc(Cl)cc2O)c(C)c1 [Compound No. 2570, 1-{4-[(6-Chloro-4-hydroxy-3-pyridazinyl)oxy]-3-methylphenyl}ethanone]
  melting point: 182 to 184 °C

## Cc1cc(C)c(C2CC2)c(Oc2nnc(Cl)cc2O)c1C [Compound No. 1126, 6-Chloro-3-(2-cyclopropyl-3,5,6-trimethylphenoxy)-4-pyridazinol]
  melting point: 212 to 219 °C

## Oc1cc(Cl)nnc1Oc1ccccc1C1CCCCC1 [Compound No. 293, 6-Chloro-3-(2-cyclohexylphenoxy)-4-pyridazinol]
  melting point: 158 to 159 °C

## Cc1cc(C)cc(Oc2nnc(Cl)cc2O)c1 [Compound No. 998, 6-Chloro-3-(3,5-dimethylphenoxy)-4-pyridazinol]
  melting point: 178 to 182 °C

## CCc1cc(I)cc(I)c1Oc1nnc(Cl)cc1O [Compound No. 1120, 6-Chloro-3-(2-ethyl-4,6-diiodophenoxy)-4-pyridazinol]
  melting point: 142 to 144 °C

## CCc1cccc(Cl)c1Oc1nnc(Cl)cc1O [Compound No. 737, 6-Chloro-3-(2-chloro-6-ethylphenoxy)-4-pyridazinol]
  melting point: 194 to 195 °C

## CCCCCCCCCCCCCCC(=O)Oc1cc(Cl)nnc1Oc1c(C)cccc1C1CC1 [Compound No. 1260, 6-Chloro-3-(2-cyclopropyl-6-methylphenoxy)-4-pyridazinyl pentadecanoate]
  melting point: 35 to 37 °C

## CC(C)c1cc(Br)ccc1Oc1nnc(Cl)cc1O [Compound No. 566, 3-(4-Bromo-2-isopropylphenoxy)-6-chloro-4-pyridazinol]
  melting point: 215 to 225 °C

## CC=Cc1ccc(F)cc1Oc1nnc(Cl)cc1O [Compound No. 679, 6-Chloro-3-[5-fluoro-2-(1-propenyl)phenoxy]-4-pyridazinol]
  melting point: 210 to 217 °C

## COC(=O)c1ccccc1Oc1nnc(Cl)cc1O [Compound No. 339, Methyl 2-[(6-chloro-4-hydroxy-3-pyridazinyl)oxy]benzoate]
  melting point: 188 to 191 °C

## Cc1cccc(C2CC2)c1Oc1nnc(Cl)cc1OC(=O)C(C)(C)Br [Compound No. 2697, 6-Chloro-3-(2-cyclopropyl-6-methylphenoxy)-4-pyridazinyl 2-bromo-2-methylpropanoate]
  melting point: 69 to 71 °C

## COc1ccc(F)cc1Oc1nnc(Cl)cc1O [Compound No. 700, 6-Chloro-3-(5-fluoro-2-methoxyphenoxy)-4-pyridazinol]
  melting point: 187 to 191 °C

## C=CCc1c(OC)ccc(CC)c1Oc1nnc(Cl)cc1O [Compound No. 1080, 3-(2-Allyl-6-ethyl-3-methoxyphenoxy)-6-chloro-4-pyridazinol]
  melting point: 183 to 186 °C

## COc1ccc(Br)c(Oc2nnc(Cl)cc2O)c1C [Compound No. 1066, 3-(6-Bromo-3-methoxy-2-methylphenoxy)-6-chloro-4-pyridazinol]
  melting point: 246 to 253 °C

## Cc1cccc(C2CC2)c1Oc1nnc(Cl)cc1OC(=O)c1ccc(C(C)(C)C)cc1 [Compound No. 1575, 6-Chloro-3-(2-cyclopropyl-6-methylphenoxy)-4-pyridazinyl 4-tert-butylbenzoate]
  melting point: 139 to 142 °C

## Cc1ccc(C2CC2)c(Oc2nnc(Cl)cc2O)c1C [Compound No. 1061, 6-Chloro-3-(6-cyclopropyl-2,3-dimethylphenoxy)-4-pyridazinol]
  melting point: 229 to 234 °C

## Cc1ccc(C(=O)Oc2cc(Cl)nnc2Oc2ccccc2C)cc1 [Compound No. 1553, 6-Chloro-3-(2-methylphenoxy)-4-pyridazinyl 4-methylbenzoate]
  melting point: 105 to 108 °C

## Oc1cc(Cl)nnc1Oc1ccccc1-c1ccccc1 [Compound No. 344, 3-([1,1′-Biphenyl]-2-yloxy)-6-chloro-4-pyridazinol]
  melting point: 98 to 100 °C

## COc1ccc(C)c(Oc2nnc(Cl)cc2O)c1 [Compound No. 629, 6-Chloro-3-(5-methoxy-2-methylphenoxy)-4-pyridazinol]
  melting point: 170 to 172 °C

## CCCc1cccc(F)c1Oc1nnc(Cl)cc1O [Compound No. 716, 6-Chloro-3-(2-fluoro-6-propylphenoxy)-4-pyridazinol]
  melting point: 134 to 137 °C

## CCS(=O)(=O)Oc1cc(Cl)nnc1Oc1c(C)cccc1C1CC1 [Compound No. 2034, 6-Chloro-3-(2-cyclopropyl-6-methylphenoxy)-4-pyridazinyl ethanesulfonate]
  melting point: 96 to 97 °C

## Oc1cc(Cl)nnc1Oc1ccccc1C1(F)CC1 [Compound No. 140, 6-Chloro-3-[2-(1-fluorocyclopropyl)phenoxy]-4-pyridazinol]
  melting point: 152 to 157 °C

## CCC(=O)Oc1cc(Cl)nnc1Oc1c(C)cccc1C1CC1 [Compound No. 1160, 6-Chloro-3-(2-cyclopropyl-6-methylphenoxy)-4-pyridazinyl propionate]
  melting point: 75 to 77 °C

## Cc1cccc(C2CC2)c1Oc1nnc(Cl)cc1OC(=O)N1CCCC1 [Compound No. 1937, 6-Chloro-3-(2-cyclopropyl-6-methylphenoxy)-4-pyridazinyl 1-pyrrolidinecarboxylate]
  melting point: 115 to 118 °C
